# Laboratory results reported in ChEMBL document CHEMBL1124059, “Atypical antipsychotic agents: patterns of activity in a series of 3-substituted 2-pyridinyl-1-piperazine derivatives” (J Med Chem, 1988).
# Calls of active or inactive are those of the source. The rule behind the calls is not given here.
# Assays:
# D(2) dopamine receptor = D(2) dopamine receptor (Rattus norvegicus, UniProt P61169); test: Ability to inhibit [3H]spiperone binding to Dopamine receptor D2 in rat corpus striatum; assay type: tissue-based
# Rattus norvegicus [1] = test: Ability to reverse trifluoperazine-induced catalepsy in rat (po); IA = Compound induced catalepsy; assay type: functional, organism-based
# Rattus norvegicus [2] = species: Rattus norvegicus; test: Inhibition of the rat conditioned avoidance response, CAR (Tranquilizing activity, peroral); assay type: functional; conditions: po
# Rattus norvegicus [3] = test: Induction of catalepsy in rat (po)
# Rattus norvegicus [4] = test: In vivo inhibition of apomorphine (APO) induced stereotypy in rats (po); assay type: functional
# [5] = molecular target: T1, Adrenergic receptor alpha-1 (Rattus norvegicus, UniProt P15823+P23944+P43140); test: Ability to inhibit [3H]WB-4101 binding to rat cortical alpha-1-adrenergic receptor; assay type: protein assay
# T1 sequence (P15823 whole entry): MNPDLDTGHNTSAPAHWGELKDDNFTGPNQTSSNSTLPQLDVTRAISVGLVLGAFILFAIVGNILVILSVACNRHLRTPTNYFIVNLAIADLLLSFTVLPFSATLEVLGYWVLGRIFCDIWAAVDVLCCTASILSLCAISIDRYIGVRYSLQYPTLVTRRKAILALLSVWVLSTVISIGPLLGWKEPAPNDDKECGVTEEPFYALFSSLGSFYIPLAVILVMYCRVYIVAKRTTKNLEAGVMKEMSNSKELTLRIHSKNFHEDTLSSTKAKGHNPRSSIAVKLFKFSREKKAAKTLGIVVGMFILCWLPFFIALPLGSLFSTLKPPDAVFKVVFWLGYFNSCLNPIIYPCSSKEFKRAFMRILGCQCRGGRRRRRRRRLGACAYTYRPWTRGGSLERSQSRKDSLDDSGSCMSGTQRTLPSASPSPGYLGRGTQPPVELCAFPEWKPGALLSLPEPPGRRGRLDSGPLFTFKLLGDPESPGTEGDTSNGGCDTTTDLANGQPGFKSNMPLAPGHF
# T1 sequence (P23944 whole entry): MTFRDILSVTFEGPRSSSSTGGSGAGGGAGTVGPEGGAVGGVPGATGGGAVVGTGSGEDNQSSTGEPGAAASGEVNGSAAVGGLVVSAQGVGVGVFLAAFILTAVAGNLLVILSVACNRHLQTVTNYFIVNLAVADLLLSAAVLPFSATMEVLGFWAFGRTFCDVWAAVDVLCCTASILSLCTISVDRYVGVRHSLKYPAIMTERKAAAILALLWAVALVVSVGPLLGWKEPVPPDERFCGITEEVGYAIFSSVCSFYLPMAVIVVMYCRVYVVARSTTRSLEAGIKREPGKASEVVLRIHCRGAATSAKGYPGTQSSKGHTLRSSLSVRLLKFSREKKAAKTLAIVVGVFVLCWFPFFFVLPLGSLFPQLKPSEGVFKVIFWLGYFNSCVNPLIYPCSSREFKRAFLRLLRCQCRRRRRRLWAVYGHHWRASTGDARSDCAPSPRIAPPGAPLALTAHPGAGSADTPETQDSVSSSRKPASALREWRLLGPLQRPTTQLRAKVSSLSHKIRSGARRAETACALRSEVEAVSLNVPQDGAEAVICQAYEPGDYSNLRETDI
# T1 sequence (P43140 whole entry): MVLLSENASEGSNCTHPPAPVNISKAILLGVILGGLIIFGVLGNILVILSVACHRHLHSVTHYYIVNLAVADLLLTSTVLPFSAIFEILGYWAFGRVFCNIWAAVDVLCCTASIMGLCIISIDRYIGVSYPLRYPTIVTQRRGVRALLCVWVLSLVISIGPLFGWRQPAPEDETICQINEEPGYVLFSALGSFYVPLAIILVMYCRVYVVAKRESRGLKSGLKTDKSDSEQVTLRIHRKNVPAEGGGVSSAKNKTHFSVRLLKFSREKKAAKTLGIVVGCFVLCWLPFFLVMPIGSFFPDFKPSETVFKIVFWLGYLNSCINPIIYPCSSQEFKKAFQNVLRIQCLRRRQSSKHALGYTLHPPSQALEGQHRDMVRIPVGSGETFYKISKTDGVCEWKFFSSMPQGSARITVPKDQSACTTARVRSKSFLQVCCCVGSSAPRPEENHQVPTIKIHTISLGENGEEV
# Rattus norvegicus [6] = test: Ability to reverse trifluoperazine-induced catalepsy in rat (po); assay type: functional
# Sequence of D(2) dopamine receptor (P61169 whole entry): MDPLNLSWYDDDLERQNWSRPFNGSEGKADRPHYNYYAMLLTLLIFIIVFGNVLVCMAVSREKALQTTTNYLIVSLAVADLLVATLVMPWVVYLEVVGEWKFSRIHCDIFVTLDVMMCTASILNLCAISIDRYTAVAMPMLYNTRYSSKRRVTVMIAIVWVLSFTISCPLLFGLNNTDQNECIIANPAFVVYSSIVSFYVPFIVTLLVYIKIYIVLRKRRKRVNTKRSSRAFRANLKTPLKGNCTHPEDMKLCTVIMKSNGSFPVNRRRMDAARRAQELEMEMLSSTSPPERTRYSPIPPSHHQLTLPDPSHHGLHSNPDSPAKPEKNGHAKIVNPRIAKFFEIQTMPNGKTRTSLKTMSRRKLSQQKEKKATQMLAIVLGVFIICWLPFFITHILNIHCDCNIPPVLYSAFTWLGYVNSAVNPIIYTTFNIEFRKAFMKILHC
SMILES,IC50 (D(2) dopamine receptor),ED50 (Rattus norvegicus [1]),ED50 (Rattus norvegicus [2]),ED50 (Rattus norvegicus [3]),ED50 (Rattus norvegicus [4]),IC50 [5],ED50 (Rattus norvegicus [6])
O=C1CSC(=O)N1CCCCN1CCN(c2ccccn2)CC1,> 1000 nM,inactive,45.8 mg/kg,–,–,–,–
Cc1cccnc1N1CCN(CCCCN2C(=O)CC3(CCCC3)CC2=O)CC1,476 nM,–,46.4 mg/kg,> 186 mg/kg,–,–,–
O=C1COCC(=O)N1CCCCN1CCN(c2ncccc2Cl)CC1,> 1000 nM,–,59.8 mg/kg,–,> 63 mg/kg,16 nM,–
O=C1COCC(=O)N1CCCCN1CCN(c2ncccc2[N+](=O)[O-])CC1,> 1000 nM,–,55 mg/kg,220 mg/kg,–,38.3 nM,–
COc1cccc(N2CCN(CCCCN3C(=O)SC4(CCCC4)C3=O)CC2)n1,> 1000 nM,inactive,35.9 mg/kg,–,> 100 mg/kg,–,–
O=C1SC2(CCCC2)C(=O)N1CCCCN1CCN(c2ncccc2-c2ccccc2)CC1,236 nM,inactive,> 100 mg/kg,–,> 100 mg/kg,–,–
CC1(C)CC(=O)N(CCCCN2CCN(c3ncccc3-c3ccccc3)CC2)C(=O)C1,109 nM,–,67.6 mg/kg,90.8 mg/kg,–,–,–
N#Cc1cccnc1N1CCN(CCCCN2C(=O)SC3(CCCC3)C2=O)CC1,34 nM,–,38 mg/kg,–,29.3 mg/kg,35 nM,9.2 mg/kg
O=C1SC2(CCCC2)C(=O)N1CCCCN1CCN(c2ccccn2)CC1,620 nM,inactive,20.8 mg/kg,–,> 95 mg/kg,–,–
CC1(C)CC(=O)N(CCCCN2CCN(c3ncccc3Cl)CC2)C(=O)C1,360 nM,–,25.9 mg/kg,104 mg/kg,–,–,–
N#Cc1cccnc1N1CCN(CCCCN2C(=O)CSC2=O)CC1,> 1000 nM,inactive,15.8 mg/kg,–,> 100 mg/kg,39 nM,–
COC(=O)c1cccnc1N1CCN(CCCCN2C(=O)CC(C)(C)CC2=O)CC1,> 1000 nM,–,57 mg/kg,228 mg/kg,69.2 mg/kg,36.9 nM,–
COc1cccnc1N1CCN(CCCCN2C(=O)SC3(CCCC3)C2=O)CC1,79 nM,inactive,18.8 mg/kg,–,< 57 mg/kg,–,–
O=C1SC2(CCCC2)C(=O)N1CCCCN1CCN(c2ncccc2[N+](=O)[O-])CC1,69 nM,–,25.3 mg/kg,–,43.6 mg/kg,34.1 nM,44.2 mg/kg
O=Cc1cccnc1N1CCN(CCCCN2C(=O)COCC2=O)CC1,> 1000 nM,–,> 100 mg/kg,–,–,–,–
COC(=O)c1cccnc1N1CCN(CCCCN2C(=O)SC3(CCCC3)C2=O)CC1,138 nM,–,29.8 mg/kg,–,50.2 mg/kg,7.8 nM,5.05 mg/kg
Nc1cccnc1N1CCN(CCCCN2C(=O)SC3(CCCC3)C2=O)CC1,> 1000 nM,inactive,> 100 mg/kg,–,–,–,–
O=Cc1cccnc1N1CCN(CCCCN2C(=O)SC3(CCCC3)C2=O)CC1,130 nM,–,60 mg/kg,–,48 mg/kg,9.6 nM,12.9 mg/kg
CO/N=C\c1cccnc1N1CCN(CCCCN2C(=O)SC3(CCCC3)C2=O)CC1,428 nM,inactive,71.3 mg/kg,–,–,67.4 nM,–
O=C1COCC(=O)N1CCCCN1CCN(c2ncccc2-c2ccccc2)CC1,> 41 nM,–,> 100 mg/kg,–,> 63 mg/kg,16 nM,–
Cc1nnc(-c2cccnc2N2CCN(CCCCN3C(=O)CC4(CCCC4)CC3=O)CC2)o1,610 nM,–,70.9 mg/kg,–,–,–,–
CN1CCN(C2=Nc3cc(Cl)ccc3Nc3ccccc32)CC1,–,inactive,–,–,–,–,–
Cc1cccnc1N1CCN(CCCCN2C(=O)CC(C)(C)CC2=O)CC1,> 1000 nM,–,42.1 mg/kg,> 200 mg/kg,> 100 mg/kg,–,–
COc1cccc(N2CCN(CCCCN3C(=O)CC(C)(C)CC3=O)CC2)n1,> 1000 nM,–,11.9 mg/kg,48 mg/kg,76.2 mg/kg,68 nM,–
Cc1cccnc1N1CCN(CCCCN2C(=O)SC3(CCCC3)C2=O)CC1,630 nM,inactive,46.4 mg/kg,–,> 50 mg/kg,–,–
O=C1SC2(CCCC2)C(=O)N1CCCCN1CCN(c2ncccc2Cl)CC1,160 nM,inactive,66.9 mg/kg,–,50 mg/kg,19.9 nM,–
